Assay results: ChEMBL document CHEMBL1201862, “PubChem BioAssay data set” (2004)
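Growth conditions: 96-well plates. Treatment: test compound, 48 hours, 5 concentrations. Analysis: linear interpolation between bracketing concentrations; unreached endpoints set to highest concentration. At the GI50, growth is halved.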 The source made the active and inactive calls. Rule as the data show it: active = GI50 up to about 1.1 µM and inactive = higher.

Tests used:
Assay in all cases: inhibition of tumour cell growth, NCI panel, 48 h
MOLT-4 = system: MOLT-4
K562 = system: K562
SF-268 = system: SF-268
EKVX = system: EKVX
SN12C = system: SN12C
SNB-19 = system: SNB-19
U-251 = system: U-251
OVCAR-5 = system: OVCAR-5
UACC-257 = system: UACC-257
HOP-62 = system: HOP-62
OVCAR-3 = system: OVCAR-3
SF-539 = system: SF-539
CAKI-1 = system: CAKI-1
RXF 393 = system: RXF 393
UO-31 = system: UO-31
SK-OV-3 = system: SK-OV-3

Measured: GI50

O=[N+]([O-])C(=C(c1ccccc1)c1ccccc1)[N+](=O)[O-]
inactive: MOLT-4 3.32 µM | K562 20.5 µM | SF-268 4.57 µM | EKVX > 10 µM | SN12C 15.5 µM | SNB-19 15.7 µM | U-251 13.6 µM | OVCAR-5 19.9 µM | UACC-257 13.1 µM | HOP-62 > 10 µM | OVCAR-3 20.7 µM | SF-539 13.6 µM | CAKI-1 21.1 µM | RXF 393 3.69 µM | UO-31 22.1 µM

CC12CCC(=O)N1c1ccc([N+](=O)[O-])cc1N2 (stereo unspecified)
inactive: MOLT-4 83.4 µM | K562 > 100 µM | SF-268 > 100 µM | EKVX > 100 µM | SN12C > 100 µM | SK-OV-3 > 100 µM | SNB-19 > 100 µM | U-251 > 100 µM | UACC-257 > 100 µM | HOP-62 > 100 µM | OVCAR-3 > 100 µM | SF-539 > 100 µM | RXF 393 > 100 µM | UO-31 > 100 µM

CSc1ccc2c(cc1=O)C(NC(=O)c1ccc(OC(C)=O)cc1)CCc1cc(O)c(O)c(O)c1-2 (stereo unspecified)
inactive: MOLT-4 5.11 µM | K562 1.95 µM | SF-268 42.1 µM | EKVX 20.5 µM | SN12C 16.3 µM | SK-OV-3 38.4 µM | SNB-19 35.2 µM | U-251 20.4 µM | OVCAR-5 25.1 µM | UACC-257 19.5 µM | HOP-62 26.9 µM | OVCAR-3 20.8 µM | SF-539 19.1 µM | UO-31 35.6 µM

N#CC(C#N)=c1c2nsnc2c(=C(C#N)C#N)c2nsnc12
inactive: SF-268 2.3 µM | EKVX 4.2 µM | SNB-19 2.16 µM | U-251 1.79 µM | OVCAR-5 1.89 µM | UACC-257 1.94 µM | HOP-62 2.04 µM | OVCAR-3 3.66 µM | SF-539 1.93 µM | CAKI-1 1.86 µM | RXF 393 1.28 µM | UO-31 1.84 µM

CCCN(CCC)c1c([N+](=O)[O-])cc(C(N)=O)cc1[N+](=O)[O-]
inactive: MOLT-4 37 µM | K562 31.1 µM | SF-268 > 100 µM | EKVX 36.3 µM | SN12C > 100 µM | SK-OV-3 58.3 µM | U-251 69 µM | OVCAR-5 > 100 µM | UACC-257 49.4 µM | OVCAR-3 78 µM | SF-539 > 100 µM | CAKI-1 37.2 µM | UO-31 65.5 µM

O=c1[nH]c2c(c3ccccc13)CCc1ccccc1-2
inactive: MOLT-4 > 100 µM | K562 > 100 µM | SF-268 > 100 µM | EKVX > 100 µM | SN12C > 100 µM | SK-OV-3 > 100 µM | SNB-19 > 100 µM | U-251 > 100 µM | OVCAR-5 > 100 µM | UACC-257 > 100 µM | OVCAR-3 > 100 µM | SF-539 > 100 µM | CAKI-1 > 100 µM | RXF 393 > 100 µM | UO-31 > 100 µM

Cc1ccccc1NC(=O)C(=O)c1c(O)c2ccc(O)cc2oc1=O
inactive: MOLT-4 > 100 µM | K562 > 100 µM | SF-268 > 100 µM | SN12C > 100 µM | SK-OV-3 > 100 µM | SNB-19 > 100 µM | U-251 > 100 µM | UACC-257 > 100 µM | HOP-62 > 100 µM | OVCAR-3 > 100 µM | CAKI-1 > 100 µM | RXF 393 > 100 µM | UO-31 > 100 µM

Cc1nc2c(n1CCC(C)C)C(=O)c1ccccc1C2=O
inactive: MOLT-4 8.26 µM | K562 8.07 µM | SF-268 14.3 µM | EKVX 29.7 µM | SN12C 23.2 µM | SK-OV-3 38.4 µM | SNB-19 39.7 µM | U-251 12.7 µM | UACC-257 27.7 µM | HOP-62 18 µM | OVCAR-3 23.5 µM | SF-539 12 µM | RXF 393 23.4 µM | UO-31 24.8 µM

O=C(NCC#CCO)C(F)(F)F
inactive: MOLT-4 > 100 µM | SF-268 > 100 µM | EKVX > 100 µM | SN12C > 100 µM | SK-OV-3 97.5 µM | SNB-19 > 100 µM | U-251 > 100 µM | OVCAR-5 > 100 µM | UACC-257 > 100 µM | HOP-62 > 100 µM | SF-539 > 100 µM | CAKI-1 > 100 µM | RXF 393 > 100 µM | UO-31 > 100 µM

COCOCc1cc(OCc2ccccc2)c(OC)cc1Br
inactive: K562 63.8 µM | SF-268 84.9 µM | EKVX > 100 µM | SN12C > 100 µM | SNB-19 > 100 µM | U-251 > 100 µM | OVCAR-5 > 100 µM | UACC-257 > 100 µM | HOP-62 > 100 µM | OVCAR-3 > 100 µM | SF-539 > 100 µM | CAKI-1 64.3 µM | RXF 393 47.4 µM

O=C(CCC(=O)C(C(=O)c1ccccc1)c1ccccc1)Nc1cccc(C(F)(F)F)c1 (stereo unspecified)
inactive: MOLT-4 > 100 µM | K562 > 100 µM | SF-268 > 100 µM | EKVX > 100 µM | SN12C > 100 µM | SK-OV-3 > 100 µM | SNB-19 > 100 µM | U-251 > 100 µM | OVCAR-5 > 100 µM | UACC-257 > 100 µM | OVCAR-3 > 100 µM | SF-539 > 100 µM | CAKI-1 > 100 µM | UO-31 > 100 µM

COc1ccc(-c2onc(-c3ccc([N+](=O)[O-])cc3)c2C2=NCCN2)cc1
inactive: MOLT-4 > 100 µM | K562 > 100 µM | SF-268 72.3 µM | EKVX > 100 µM | SN12C 67.5 µM | SNB-19 50.5 µM | U-251 67.6 µM | OVCAR-5 > 100 µM | UACC-257 18.5 µM | HOP-62 > 100 µM | OVCAR-3 > 100 µM | SF-539 38 µM | CAKI-1 > 100 µM | RXF 393 32.3 µM | UO-31 29.6 µM

C=CCN1CCC23c4c5ccc(O)c4OC2C(=NN=C2CCC4(O)C6Cc7ccc(O)c8c7C4(CCN6CC=C)C2O8)CCC3(O)C1C5 (stereo unspecified)
inactive: MOLT-4 38.3 µM | K562 26.2 µM | SF-268 53.8 µM | EKVX 28.5 µM | SN12C 23 µM | SK-OV-3 37.5 µM | SNB-19 44.3 µM | U-251 18.9 µM | OVCAR-5 66.5 µM | UACC-257 23.9 µM | HOP-62 21.4 µM | OVCAR-3 18.5 µM | SF-539 18.6 µM | CAKI-1 44.5 µM | UO-31 > 100 µM

CCOC(=O)C1N(S(=O)(=O)c2ccc(C)cc2)CCC12c1ccccc1N(C(C)=O)C2c1ccc(OC)c(OC)c1 (stereo unspecified)
inactive: K562 80.7 µM | SF-268 > 100 µM | EKVX > 100 µM | SN12C > 100 µM | SK-OV-3 > 100 µM | SNB-19 > 100 µM | U-251 > 100 µM | OVCAR-5 > 100 µM | UACC-257 > 100 µM | HOP-62 > 100 µM | OVCAR-3 > 100 µM | SF-539 > 100 µM | CAKI-1 76.7 µM | RXF 393 > 100 µM | UO-31 42.7 µM
